Measurements reported in US7799810B2, “Organic compounds” (Novartis AG, priority 2006, dated 2010).

Tests used:
[1] = tested on: spleen cells of nu/nu Balb/c mice; assay: B cell proliferation assay (anti-IgM stimulated spleen cells); type: cell-based; conditions: anti-mouse IgM 5 μg/ml, 3 days, [3H] thymidine incorporation
Experimental: B cell proliferation assay. A spleen cell suspension of nu/nu Balb/c mice is prepared and adjusted to 2×10^6 cells/ml in complete Iscoves Medium followed by the addition of 10 μg/ml monoclonal anti-mouse IgM antibody (clone b-7-6). Compounds to be rested are dissolved in DMSO at 10 mM and diluted in complete Iscoves Medium. […] Plates are incubated for 3 days at 37° C. and 5% CO2. Cell proliferation is measured by incorporation of [^3H] thymidine following a 16 hours pulse.

[2] = tested on: spleen cells from CBA and BALB/c mice; assay: Mixed lymphocyte reaction (two-way MLR); type: cell-based; conditions: Mus musculus, four days of incubation, 3H-thymidine incorporation
Experimental: Mixed lymphocyte reaction (MLR). A two-way MLR is performed according to standard procedures. Briefly, spleen cells from CBA and BALB/c mice (1.6×10^5 cells from each strain per well in flat bottom tissue culture microtiter plates, 3.2×10^5 in total) are incubated in RPMI medium containing 10% fetal calf serum, 100 U/ml penicillin, 100 μg/ml streptomycin, 50 μM 2-mercaptoethanol and serially diluted compounds to be tested. After four days of incubation 1 μCi [^3H] thymidine is added to the cultures. Cells are harvested after an additional five-hour incubation period, and incorporated ^3H-thymidine is determined according to standard procedures. […] In this assay, the compounds of formula I have ICsovalues ranging from 20 nM to 200 nM.

Human PI3K delta = target: T1, Human PI3K delta (Homo sapiens, UniProt O00329); assay: Cellular PI3K delta assay (Akt phosphorylation in transfected Rat-1 cells); type: cell-based; conditions: Rat-1 cells transfected with human PI3K delta CaaX construct, phospho Akt ELISA; read-out: IC50 PI3K delta-dependent Akt phosphorylation
T1 construct: fused on or other part: CaaX box (isoprenylation / membrane-targeting signal) added at the C-terminal end
T1 sequence (O00329 1-1044): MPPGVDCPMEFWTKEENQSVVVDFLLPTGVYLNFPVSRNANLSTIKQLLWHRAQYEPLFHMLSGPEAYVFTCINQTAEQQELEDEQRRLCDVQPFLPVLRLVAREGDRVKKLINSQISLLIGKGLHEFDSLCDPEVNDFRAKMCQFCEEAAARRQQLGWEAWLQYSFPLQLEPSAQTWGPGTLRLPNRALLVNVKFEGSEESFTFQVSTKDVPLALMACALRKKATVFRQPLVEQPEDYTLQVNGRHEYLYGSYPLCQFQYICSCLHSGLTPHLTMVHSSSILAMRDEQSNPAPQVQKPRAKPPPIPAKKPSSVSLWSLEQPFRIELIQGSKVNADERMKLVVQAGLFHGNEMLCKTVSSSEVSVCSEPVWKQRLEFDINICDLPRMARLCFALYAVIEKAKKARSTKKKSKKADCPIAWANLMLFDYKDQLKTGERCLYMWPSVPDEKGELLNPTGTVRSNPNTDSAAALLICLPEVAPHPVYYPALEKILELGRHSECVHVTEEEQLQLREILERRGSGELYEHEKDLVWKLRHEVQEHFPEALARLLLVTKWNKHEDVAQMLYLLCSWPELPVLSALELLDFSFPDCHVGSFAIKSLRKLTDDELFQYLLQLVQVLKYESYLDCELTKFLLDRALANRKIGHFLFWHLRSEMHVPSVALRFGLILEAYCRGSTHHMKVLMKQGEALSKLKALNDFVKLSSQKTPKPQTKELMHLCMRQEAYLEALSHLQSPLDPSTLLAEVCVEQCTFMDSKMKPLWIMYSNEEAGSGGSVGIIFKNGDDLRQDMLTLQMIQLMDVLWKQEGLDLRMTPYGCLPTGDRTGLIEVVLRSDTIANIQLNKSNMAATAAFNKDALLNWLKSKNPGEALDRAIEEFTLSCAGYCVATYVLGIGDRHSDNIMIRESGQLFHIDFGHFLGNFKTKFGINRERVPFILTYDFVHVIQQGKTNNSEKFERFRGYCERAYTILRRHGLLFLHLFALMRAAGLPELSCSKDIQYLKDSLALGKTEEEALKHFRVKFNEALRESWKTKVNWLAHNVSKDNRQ
Description: Cellular PI3K delta assay. Rat-1 cells are transiently transfected with a human PI3K delta construct (pcDNA3 PIK3 delta containing a CaaX box at the C-terminal end) using the FUGENE transfection kit. The CaaX box signals for the attachment of an isoprenoid moiety which activates PI3K delta by targeting it to intracellular membranes/the plasma membrane. Subsequent, PI3K delta-dependent Akt phosphorylation is quantified in presence and absence of compounds to be tested using the phospho Akt ELISA kit from R&D Systems.

PI3K α, β or γ isoform = assay: Selectivity for the δ isoform by corresponding assay using the corresponding PI3K isoform; type: biochemical; conditions: δ versus α
Experimental: PI3K delta enzyme assay based on Scintillation Proximity Assay (SPA) technology. Human PI3K delta is expressed as a recombinant protein in insect cells. PI3K delta activity is assayed by measuring the phosphorylation of phosphatidylinositol (PI) using a scintillation proximity assay. Briefly, the kinase reaction is performed in a final volume of 50 μl/well. The final concentrations of ATP and PI in the assay are 5 μM and 6 μg/ml, respectively. The reaction is started by the addition of PI3K delta and terminated by the addition of 50 μl Wheatgerm agglutinin SPA beads after 90 minutes of incubation at room temperature.

Cc1cc(NC(=O)CCNC(=O)Nc2nc(C)c(-c3ccc(-n4cccn4)cc3)s2)no1 [Example 2, N-(5-Methyl-isoxazol-3-yl)-3-{3-[4-methyl-5-(4-pyrazol-1-yl-phenyl)-thiazol-2-yl]-ureido}-propionamide]
IC50 [1]: 15 nM
IC50 [2]: 26 nM
IC50 (Human PI3K delta): 22 nM
selectivity for the δ isoform over the α, β or γ isoform (ratio of IC50 values) (PI3K α, β or γ isoform): at least 10 fold
